One compound from patent US20230381210A1, “COMPOSITION FOR PREVENTION, AMELIORATION, OR TREATMENT OF HYPERSENSITIVITY IMMUNE DISEASE CONTAINING GALACTOSE” (Quorum Bio Co., Ltd., priority 2020, published 2023) can be followed below.

Assay type in all cases: in vivo, BALB/c mice
Test [1] deals with DNCB-induced atopic dermatitis mouse model. Briefly: Visual confirmation of skin lesions in DNCB-induced atopic dermatitis mouse model. Conditions: oral 100 or 200 mg/kg daily (G5, G6) vs negative control (G3, PBS); FIG. 2, n=2 per group. The procedure: An animal experiment in the following example was performed in accordance with the regulations set forth by Chonnam National University IACUC in an environment maintained at 50±5% humidity and 24˜26° C. temperature. 7-week-old male BALB/c mice (Damool Science Co., Ltd.) bred as a test animal were used, and after being acclimatized in a laboratory environment for one week while supplying enough feed and water, they were used in the experiment. Non-allergenic, dust-free, non-toxic, absorbent and pathogen-free bedding was used, and the cage was changed once a week to maintain a clean environment, and water was freely supplied with a water bottle. Galactose was pre-administered for 2 weeks from the period when the prepared mice were 8-week-old. Pre-administration was performed by oral administration once a day for 2 weeks, and the dose of galactose was 100 mg/kg or 200 mg/kg, respectively. As a control group, mice administered (orally) with PBS for the same period were prepared. After 2 weeks of pre-administration, the hairs on the mouse head and back of the mice were removed using a clipper and depilatory cream. […] On the day 16 after the first DNCB application (just before necropsy), ear thickness and clinical symptoms of the mice were measured. […]

Test [2] shares this test system. Briefly: Clinical scoring (rubefaction, keratin formation, crust formation) in DNCB-induced atopic dermatitis mouse model. Conditions: oral 100 or 200 mg/kg daily (G5, G6) vs negative control (G3); FIG. 4. The procedure:
An animal experiment in the following example was performed in accordance with the regulations set forth by Chonnam National University IACUC in an environment maintained at 50±5% humidity and 24˜26° C. temperature. 7-week-old male BALB/c mice (Damool Science Co., Ltd.) bred as a test animal were used, and after being acclimatized in a laboratory environment for one week while supplying enough feed and water, they were used in the experiment. Non-allergenic, dust-free, non-toxic, absorbent and pathogen-free bedding was used, and the cage was changed once a week to maintain a clean environment, and water was freely supplied with a water bottle. […] On the day 16 after the first DNCB application (just before necropsy), ear thickness and clinical symptoms of the mice were measured. The mice prepared in Reference example 1 were evaluated for clinical symptoms (rubefaction, keratin formation (dryness degree), crust formation), and ear thickness was measured and then recorded three times a week (Monday, Wednesday, Friday). Ear thickness was measured three times a week using Caliper (R12-1A, Ozaki, Tokyo, Japan). […] For the mice prepared in Reference example 1, the clinical symptoms of the three items (rubefaction, keratin formation (dryness), crust formation) were scored on the basis of the following: 0 point; none, 1 point; mild, 2 points; moderate, 3 points; severe.

The test system is the same in test [3]. Put plainly: Total IgE in serum by ELISA in DNCB-induced atopic dermatitis mouse model. Conditions: oral 200 mg/kg daily (G6) vs negative control (G3); day 16; FIG. 7. As to the method:
An animal experiment in the following example was performed in accordance with the regulations set forth by Chonnam National University IACUC in an environment maintained at 50±5% humidity and 24˜26° C. temperature. 7-week-old male BALB/c mice (Damool Science Co., Ltd.) bred as a test animal were used, and after being acclimatized in a laboratory environment for one week while supplying enough feed and water, they were used in the experiment. Non-allergenic, dust-free, non-toxic, absorbent and pathogen-free bedding was used, and the cage was changed once a week to maintain a clean environment, and water was freely supplied with a water bottle. […] On the day 16 after the first DNCB application (just before necropsy), ear thickness and clinical symptoms of the mice were measured. At autopsy (16 days after first DNCB application), whole blood was collected, and then serum was separated and the IgE level in serum was measured by ELISA. As total IgE in serum was increased, when DNCB was treated to skin in the DNCB-induced atopic dermatitis mouse model, in the present example, by collecting blood right before autopsy of the mice prepared in Reference example 1 and then isolating serum and evaluating the total amount of IgE (ug/ml) in serum through ELISA method, a protective effect of atopic dermatitis was indirectly evaluated.
In general terms: In an ELISA, binding on a coated surface is turned into a signal by an enzyme label.

The test system is the same in test [4]. Briefly: Ear thickness measurement in DNCB-induced atopic dermatitis mouse model. The note with it: oral 100 or 200 mg/kg daily (G5, G6); FIG. 3. As to the method: An animal experiment in the following example was performed in accordance with the regulations set forth by Chonnam National University IACUC in an environment maintained at 50±5% humidity and 24˜26° C. temperature. 7-week-old male BALB/c mice (Damool Science Co., Ltd.) bred as a test animal were used, and after being acclimatized in a laboratory environment for one week while supplying enough feed and water, they were used in the experiment. Non-allergenic, dust-free, non-toxic, absorbent and pathogen-free bedding was used, and the cage was changed once a week to maintain a clean environment, and water was freely supplied with a water bottle. Galactose was pre-administered for 2 weeks from the period when the prepared mice were 8-week-old. Pre-administration was performed by oral administration once a day for 2 weeks, and the dose of galactose was 100 mg/kg or 200 mg/kg, respectively. […] On the day 16 after the first DNCB application (just before necropsy), ear thickness and clinical symptoms of the mice were measured. The mice prepared in Reference example 1 were evaluated for clinical symptoms (rubefaction, keratin formation (dryness degree), crust formation), and ear thickness was measured and then recorded three times a week (Monday, Wednesday, Friday). Ear thickness was measured three times a week using Caliper (R12-1A, Ozaki, Tokyo, Japan). […]

Test [5] shares this test system. Briefly: Spleen and lymph node weight in DNCB-induced atopic dermatitis mouse model. Conditions: oral 100 or 200 mg/kg daily (G5, G6) vs negative control (G3). The procedure:
An animal experiment in the following example was performed in accordance with the regulations set forth by Chonnam National University IACUC in an environment maintained at 50±5% humidity and 24˜26° C. temperature. 7-week-old male BALB/c mice (Damool Science Co., Ltd.) bred as a test animal were used, and after being acclimatized in a laboratory environment for one week while supplying enough feed and water, they were used in the experiment. Non-allergenic, dust-free, non-toxic, absorbent and pathogen-free bedding was used, and the cage was changed once a week to maintain a clean environment, and water was freely supplied with a water bottle. Galactose was pre-administered for 2 weeks from the period when the prepared mice were 8-week-old. Pre-administration was performed by oral administration once a day for 2 weeks, and the dose of galactose was 100 mg/kg or 200 mg/kg, respectively. As a control group, mice administered (orally) with PBS for the same period were prepared. […] On the day 16 after the first DNCB application (just before necropsy), ear thickness and clinical symptoms of the mice were measured. […] In the present example, by measuring the weight of the spleen and armpit lymph nodes right before autopsy of the mice prepared in Reference example 1, a protective effect of atopic dermatitis was indirectly evaluated.

`O=C[C@H](O)[C@@H](O)[C@@H](O)[C@H](O)CO` [galactose]: in test [1], the “degree of crust formation” value is “reduced” and the “degree of skin rubefaction” value is “suppressed”. Besides, in test [2], the “score of clinical symptoms (sum of rubefaction, keratin formation, crust formation scores)” value is on record as “significantly reduced”. Moreover, the “total amount of IgE in serum” value in test [3] is given as “significantly reduced”. In test [4], the ear thickness result was “significantly reduced”. Moreover, in test [5] (FIG. 5), the weight of spleen entry is recorded as “generally reduced”. Also, in test [5] (FIG. 6), the “weight of lymph nodes (armpit)” value is “generally reduced”.
